Measured values: ChEMBL document CHEMBL1145844 (J Med Chem, 2003)
pEC50, pKi: −log10 of the molar value.

Experiments:
[1] = molecular target: T1, Kappa-type opioid receptor (Homo sapiens, UniProt P41145); assay: % stimulation of [35S]GTP-gamma-S, binding of compound in recombinant human Opioid receptor kappa 1 transfected into CHO cells; format: functional, cell-based
Mu-type opioid receptor [2] = molecular target: T2, Mu-type opioid receptor (Homo sapiens, UniProt P35372); assay: Effective concentration agonistic activity towards Opioid receptor mu 1; format: functional
T2 sequence (P35372 whole entry): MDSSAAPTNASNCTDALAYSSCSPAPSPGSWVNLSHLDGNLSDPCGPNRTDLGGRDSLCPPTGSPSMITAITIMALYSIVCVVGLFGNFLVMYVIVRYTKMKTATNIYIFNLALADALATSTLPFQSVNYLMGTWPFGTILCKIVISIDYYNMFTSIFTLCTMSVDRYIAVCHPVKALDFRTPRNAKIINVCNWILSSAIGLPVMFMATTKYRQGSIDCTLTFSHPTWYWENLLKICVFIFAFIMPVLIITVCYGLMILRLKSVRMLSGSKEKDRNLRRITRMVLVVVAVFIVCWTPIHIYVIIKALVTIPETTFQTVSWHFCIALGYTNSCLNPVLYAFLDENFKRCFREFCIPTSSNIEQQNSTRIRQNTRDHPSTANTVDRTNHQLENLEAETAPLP

[3] = molecular target: T3, Delta-type opioid receptor (Homo sapiens, UniProt P41143); assay: Binding affinity for human Opioid receptor delta 1 transfected into chinese hamster ovary cells by displacing [3H]CI-DPDPE radioligand; format: cell-based
T3 sequence (P41143 whole entry): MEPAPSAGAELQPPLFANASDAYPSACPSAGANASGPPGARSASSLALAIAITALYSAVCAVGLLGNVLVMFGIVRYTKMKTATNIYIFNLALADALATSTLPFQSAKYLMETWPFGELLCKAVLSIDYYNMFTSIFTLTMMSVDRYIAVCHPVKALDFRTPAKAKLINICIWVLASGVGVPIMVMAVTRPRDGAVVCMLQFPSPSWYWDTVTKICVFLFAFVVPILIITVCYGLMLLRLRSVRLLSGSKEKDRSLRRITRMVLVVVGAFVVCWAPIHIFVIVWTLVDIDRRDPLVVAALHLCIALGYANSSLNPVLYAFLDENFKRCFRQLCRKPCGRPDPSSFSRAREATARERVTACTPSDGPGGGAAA

Mu-type opioid receptor [4] = molecular target: T2, Mu-type opioid receptor; assay: Binding affinity for human Opioid receptor mu 1 transfected into chinese hamster ovary cells by displacing [3H]DAMGO radioligand; format: cell-based
[5] = molecular target: T3, Delta-type opioid receptor; assay: Agonistic activity towards Opioid receptor delta 1; format: functional
[6] = molecular target: T3, Delta-type opioid receptor; assay: % stimulation of [35S]GTP-gamma-S, binding in recombinant human Opioid receptor delta 1 transfected into CHO cells; format: functional, cell-based
[7] = molecular target: T1, Kappa-type opioid receptor; assay: Agonistic activity towards Opioid receptor kappa 1; format: functional
[8] = molecular target: T1, Kappa-type opioid receptor; assay: Binding affinity in recombinant human Opioid receptor kappa 1 transfected into chinese hamster ovary cells by displacing [3H]U-69593 radioligand; format: cell-based
Mu-type opioid receptor [9] = molecular target: T2, Mu-type opioid receptor; assay: % stimulation of [35S]GTP-gamma-S, binding in recombinant human Opioid receptor mu 1 transfected into CHO cells; format: functional, cell-based
[10] = molecular target: Opioid receptors; delta & kappa (Homo sapiens, UniProt P41145+P41143); assay: Ratio of kappa/delta-opioid receptors Binding affinity; format: protein assay
[11] = molecular target: Opioid receptors; mu & delta (Homo sapiens, UniProt P41143+P35372); assay: Ratio of mu/delta-opioid receptors Binding affinity; format: protein assay
[12] = molecular target: T1, Kappa-type opioid receptor; assay: Agonistic activity towards opioid receptor kappa 1; format: functional

T1 sequence (P41145 whole entry): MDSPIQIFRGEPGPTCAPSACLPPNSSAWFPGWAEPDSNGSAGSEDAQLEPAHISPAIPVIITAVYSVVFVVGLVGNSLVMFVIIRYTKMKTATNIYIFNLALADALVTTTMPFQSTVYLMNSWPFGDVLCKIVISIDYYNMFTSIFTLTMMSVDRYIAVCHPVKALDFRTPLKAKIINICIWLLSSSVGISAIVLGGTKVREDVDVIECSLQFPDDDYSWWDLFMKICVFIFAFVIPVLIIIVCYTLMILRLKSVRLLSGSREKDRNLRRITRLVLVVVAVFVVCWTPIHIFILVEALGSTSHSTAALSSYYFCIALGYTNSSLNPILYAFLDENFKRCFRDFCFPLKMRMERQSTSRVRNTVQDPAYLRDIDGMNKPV

Row | Compound | Stimulation [1] [%] | pEC50 (Mu-type opioid receptor [2]) | pKi [3] | pKi (Mu-type opioid receptor [4]) | pEC50 [5] | Stimulation [6] [%] | pEC50 [7] | pKi [8] | Stimulation (Mu-type opioid receptor [9]) [%] | Ki [10] | Ki [11] | pEC50 [12]
1 | COc1ccc2c(c1O)[C@]13CCN(C)C(C2)[C@]12CCC(=O)[C@H]3/C(=C/c1ccccc1)C2 | 85 | 8.17 | 8.26 | 9.37 | 8.38 | 80 | 7.76 | 9.70 | 123 | 0.04 | 0.08 | –
2 | CC(C)=CC[C@@]12Cc3c([nH]c4ccccc34)[C@]3(C)Oc4c(O)ccc5c4[C@]13CCN(C)C2C5 | 31 | 5.92 | 7.29 | 6.60 | 7.05 | 43 | 6.02 | 6.36 | 72 | 8.6 | 4.9 | –
3 | C/C=C1\C[C@@]23Cc4c([nH]c5ccccc45)[C@@H]1[C@@]21CCN(C)C3Cc2ccc(OC)c(O)c21 | 36 | 5.78 | 7.08 | 6.91 | 6.66 | – | – | 6.62 | 41 | 2.9 | 1.5 | 5.66
4 | CN1CC[C@]23c4c5ccc(O)c4O[C@@]2(C)c2[nH]c4ccccc4c2C[C@@]3(C/C=C/c2ccccc2)C1C5 | 60 | 6.09 | 7.90 | 7.36 | 7.66 | 79 | 5.69 | 7.03 | 85 | 7.5 | 3.5 | –
5 | COc1ccc2c(c1O)[C@]13CCN(C)C(C2)[C@@]12C/C(=C(/C)c1ccccc1)[C@@H]3c1[nH]c3ccccc3c1C2 | 97 | 6.86 | 7.63 | 7.87 | 6.43 | 168 | 7.08 | 9.21 | 144 | 0.03 | 0.6 | –
6 | COc1ccc2c(c1O)[C@]13CCN(C)C(C2)[C@@]12CC(=C(C)C)[C@@H]3c1[nH]c3ccccc3c1C2 | 44 | 5.99 | 6.99 | 6.48 | 6.68 | – | 6.06 | 7.55 | 52 | 0.3 | 3.2 | –
7 | COc1ccc2c(c1O)[C@]13CCN(C)C(C2)[C@@]12C/C(=C\c1ccccc1)[C@@H]3c1[nH]c3ccccc3c1C2 | 83 | 7.35 | 7.80 | 8.20 | 7.37 | 87 | 6.49 | 7.46 | 110 | 2.2 | 0.4 | –
8 | COc1ccc2c(c1O)[C@]13CCN(C)C(C2)[C@]12CCC(=O)[C@H]3/C(=C(\C)c1ccccc1)C2 | 116 | 7.82 | 8.25 | 8.34 | 7.14 | 108 | 8.47 | 9.85 | 108 | 0.02 | 0.8 | –
